pIC50, pKd: −log10 of the molar value.
Key:
TYRO3 = target: T1, TYRO3 (Homo sapiens, UniProt Q06418); assay: LanthaScreen Eu kinase binding assay, TYRO3; details: Tracer 236
T1 construct: purchased Life Technologies
T1 sequence (Q06418 41-890): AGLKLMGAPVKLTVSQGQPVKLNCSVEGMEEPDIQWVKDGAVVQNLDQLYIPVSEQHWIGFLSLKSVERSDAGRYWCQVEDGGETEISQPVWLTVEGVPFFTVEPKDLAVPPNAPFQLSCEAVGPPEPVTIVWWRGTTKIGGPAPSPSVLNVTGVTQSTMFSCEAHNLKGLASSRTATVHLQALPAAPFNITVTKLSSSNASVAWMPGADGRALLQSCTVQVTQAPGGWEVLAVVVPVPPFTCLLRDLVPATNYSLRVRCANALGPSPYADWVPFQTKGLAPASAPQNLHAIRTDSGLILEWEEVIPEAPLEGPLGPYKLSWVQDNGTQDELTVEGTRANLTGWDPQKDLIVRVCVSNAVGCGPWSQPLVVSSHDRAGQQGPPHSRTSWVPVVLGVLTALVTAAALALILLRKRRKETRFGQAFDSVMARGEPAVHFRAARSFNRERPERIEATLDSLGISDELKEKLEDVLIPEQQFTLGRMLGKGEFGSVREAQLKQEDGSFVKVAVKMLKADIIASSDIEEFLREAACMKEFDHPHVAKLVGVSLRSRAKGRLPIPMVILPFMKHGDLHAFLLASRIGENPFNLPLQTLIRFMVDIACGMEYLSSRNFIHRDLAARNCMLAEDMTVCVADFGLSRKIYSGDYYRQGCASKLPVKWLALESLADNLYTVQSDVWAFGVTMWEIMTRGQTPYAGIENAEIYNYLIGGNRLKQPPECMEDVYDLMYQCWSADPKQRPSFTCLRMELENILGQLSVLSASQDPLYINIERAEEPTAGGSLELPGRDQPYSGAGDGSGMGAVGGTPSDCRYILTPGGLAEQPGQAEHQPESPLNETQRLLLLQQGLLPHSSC

[1] = system: Axl phosphorylation in transiently transfected HEK293T cells; assay: Cellular Axl phosphorylation assay; type: cell-based; details: Homo sapiens, HEK-293T; HEK293T cells transfected with Axl, 1 hour compound treatment, Phospho-Axl vs Total-Axl
From the text: Cell AXL Inhibition Assay Principle
The assay is based on the measurement of the relative amounts of Total-Axl and Phosphorylated-Axl in whole cell lysates of transiently transfected HEK293T cells. This assay is based on application of the Mesoscale western blot and subsequent electro-chemiluminescence detection. Overexpression of Axl-RTK (Receptor tyrosine kinase) by transfection leads to an increase in Axl-trans-autophosphorylation events. Upon compound treatment, the correlation of the measured values of Phosphorylated-Axl and Total Axl indicate the potential of the tested compound to inhibit Axl-phosphorylation at the given compound concentration.
Cell AXL Inhibition Assay Protocol
HEK293T cells (2.5×10^4/well) were plated in a 96 well plate and cells were transfected with pcDNA_DEST_40 Axl or pcDNA_DEST_40 by Superfact reagent (Qiagen. Co. Ltd.). After overnight, the transfection reagent of each well was removed from cells and replaced by fresh prewarmed medium. On the following day, cells were treated with the respective test compound which was diluted by the same method, as in the Axl binding assay using DMSO, for 1 hour
After incubation with the test compounds, cells in the well of the plate were lysed using Tris lysis buffer. The lysate was transferred to two plates (total-Axl and phosphor-Axl) Mesoscale high bind plates and incubated for two hours at room temperature. Afterwards the lysates were removed from the plates and the plates were blocked using Blocking buffer. Subsequently Total-Axl antibody (H-124, Santa Cruz) was transferred to one Mesoscale high bind plate, and Phospho-Axl antibody (AF2228, R&D) to the other plate. After 1 h incubation, Sulpho-Tag antibody (goat anti-rabbit, Mesoscale) was added and again incubated for 1 hour. For the measurement, 2×MSD read buffer was added to each well and the plates were analyzed with a Mesoscale Sector Imager 2400. IC50 (half the maximal inhibitory concentration) was determined relative to between the vehicle (DMSO) control group and minimum control group as transfection of the control vector (pcDNA_DEST_40).
The results after this assay are shown in table 3 for selected compounds.

SMILES: CCOc1cn(-c2ccc(Cl)cc2F)nc1C(=O)Nc1ccc(Oc2ccnc3cc(OC)c(OC)cc23)cn1 [Compound 106]
- pKd (TYRO3): 6.00 to 7.00
- pIC50 [1]: > 7.00

SMILES: CCOc1cn(-c2ccc(OC(F)(F)F)cc2Cl)nc1C(=O)Nc1ccc(Oc2ccnc3cc(OC)c(OC(F)(F)F)cc23)cn1 [Compound 201]
- pKd (TYRO3): ≤ 6.00
- pIC50 [1]: 6.00 to 7.00

SMILES: CCOc1cn(-c2ccc(Cl)cc2Cl)nc1C(=O)Nc1ccc(Oc2ccnc3cc(OC)c(OC)cc23)cn1 [Compound 108]
- pKd (TYRO3): > 7.00
- pIC50 [1]: > 7.00

SMILES: CCOc1cn(-c2ccc(OC(F)(F)F)cc2Cl)nc1C(=O)Nc1ccc(Oc2ccnc3cc(OC)c(OC)cc23)cn1 [Compound 115]
- pKd (TYRO3): ≤ 6.00
- pIC50 [1]: > 7.00

SMILES: COc1cc2nccc(Oc3ccc(NC(=O)c4nn(-c5ccc(OC(F)(F)F)cc5Cl)cc4OCC(F)(F)F)nc3)c2cc1OC [Compound 186]
- pKd (TYRO3): 6.00 to 7.00
- pIC50 [1]: > 7.00

SMILES: CCOc1cn(-c2ccc(F)cc2CC)nc1C(=O)Nc1ccc(Oc2ccnc3cc(OC)c(OC)cc23)cn1 [Compound 112]
- pKd (TYRO3): > 7.00
- pIC50 [1]: > 7.00

SMILES: CCOc1cn(-c2ncc(Cl)cc2C#N)nc1C(=O)Nc1ccc(Oc2ccnc3cc(OC)c(OC)cc23)cn1 [Compound 133]
- pKd (TYRO3): > 7.00
- pIC50 [1]: > 7.00

SMILES: CCOc1cn(-c2ccc(C(F)(F)F)cc2F)nc1C(=O)Nc1ccc(Oc2ccnc3cc(OC)c(OC)cc23)cn1 [Compound 114]
- pKd (TYRO3): ≤ 6.00
- pIC50 [1]: > 7.00

SMILES: CCOc1cn(-c2ccc(C(C)C)cc2F)nc1C(=O)Nc1ccc(Oc2ccnc3cc(OC)c(OC)cc23)cn1 [Compound 127]
- pKd (TYRO3): ≤ 6.00
- pIC50 [1]: > 7.00

SMILES: CCOc1cn(-c2ccc(C(F)(F)F)cc2C)nc1C(=O)Nc1ccc(Oc2ccnc3cc(OC)c(OC)cc23)cn1 [Compound 99]
- pKd (TYRO3): 6.00 to 7.00
- pIC50 [1]: > 7.00

SMILES: CCOc1cn(-c2ncn(C)n2)nc1C(=O)Nc1ccc(Oc2ccnc3cc(OC)c(OC)cc23)cn1 [Compound 165]
- pKd (TYRO3): 6.00 to 7.00
- pIC50 [1]: > 7.00

SMILES: CCOc1cn(-c2cnccc2C)nc1C(=O)Nc1ccc(Oc2ccnc3cc(OC)c(OC)cc23)cc1F [Compound 151]
- pKd (TYRO3): > 7.00
- pIC50 [1]: > 7.00

SMILES: CCOc1cn(-c2ccc(OC(F)(F)F)cc2F)nc1C(=O)Nc1ccc(Oc2ccnc3cc(OC)c(OC)cc23)cn1 [Compound 120]
- pKd (TYRO3): ≤ 6.00
- pIC50 [1]: > 7.00

SMILES: CCOc1cn(-c2nccs2)nc1C(=O)Nc1ccc(Oc2ccnc3cc(OC)c(OC)cc23)cn1 [Compound 12]
- pKd (TYRO3): > 7.00
- pIC50 [1]: > 7.00

SMILES: CCOc1cn(-c2ccc(C)cc2F)nc1C(=O)Nc1ccc(Oc2ccnc3cc(OC)c(OC)cc23)cn1 [Compound 100]
- pKd (TYRO3): 6.00 to 7.00
- pIC50 [1]: > 7.00

SMILES: CCOc1cn(-c2cnccc2C(C)(C)O)nc1C(=O)Nc1ccc(Oc2ccnc3cc(OC)c(OC)cc23)cc1F [Compound 197]
- pKd (TYRO3): > 7.00
- pIC50 [1]: > 7.00

SMILES: CCOc1cn(-c2nccnc2C(F)(F)F)nc1C(=O)Nc1ccc(Oc2ccnc3cc(OC)c(OC)cc23)cn1 [Compound 162]
- pKd (TYRO3): 6.00 to 7.00
- pIC50 [1]: > 7.00

SMILES: CCOc1cn(-c2ccc(C(F)(F)F)cc2C(F)(F)F)nc1C(=O)Nc1ccc(Oc2ccnc3cc(OC)c(OC)cc23)cn1 [Compound 105]
- pKd (TYRO3): 6.00 to 7.00
- pIC50 [1]: > 7.00

SMILES: CCOc1cn(-c2ccc(Cl)cc2CC)nc1C(=O)Nc1ccc(Oc2ccnc3cc(OC)c(OC)cc23)cn1 [Compound 111]
- pKd (TYRO3): > 7.00
- pIC50 [1]: > 7.00

SMILES: CCOc1cn(-c2noc(C)n2)nc1C(=O)Nc1ccc(Oc2ccnc3cc(OC)c(OC)cc23)cn1 [Compound 161]
- pKd (TYRO3): > 7.00
- pIC50 [1]: > 7.00

SMILES: CCOc1cn(-c2nc[nH]n2)nc1C(=O)Nc1ccc(Oc2ccnc3cc(OC)c(OC)cc23)cn1 [Compound 168]
- pKd (TYRO3): > 7.00
- pIC50 [1]: > 7.00

SMILES: CCOc1cn(-c2cnccc2C(F)(F)F)nc1C(=O)Nc1ccc(Oc2ccnc3cc(OC)c(OC)cc23)c(F)c1 [Compound 198]
- pKd (TYRO3): > 7.00
- pIC50 [1]: > 7.00

SMILES: CCOc1cn(-c2cnccc2C(C)(C)O)nc1C(=O)Nc1ccc(Oc2ccnc3cc(OC)c(OC)cc23)c(F)c1 [Compound 195]
- pKd (TYRO3): > 7.00
- pIC50 [1]: > 7.00

SMILES: CCOc1cnn(-c2ccc(C(F)(F)F)cc2C)c1C(=O)Nc1ccc(Oc2ccnc3cc(OC)c(OC)cc23)cn1 [Compound 102]
- pKd (TYRO3): 6.00 to 7.00
- pIC50 [1]: > 7.00

SMILES: CCOc1cn(-c2ccc(F)c(CO)c2)nc1C(=O)Nc1ccc(Oc2ccnc3cc(OC)c(OC)cc23)cn1 [Compound 128]
- pKd (TYRO3): > 7.00
- pIC50 [1]: > 7.00

SMILES: COc1cc2nccc(Oc3ccc(NC(=O)c4nn(-c5ccc(F)cc5C)cc4OCC(F)(F)F)nc3)c2cc1OC [Compound 203]
- pKd (TYRO3): > 7.00
- pIC50 [1]: > 7.00

SMILES: CCOc1cn(C2CCCN(C)C2)nc1C(=O)Nc1ccc(Oc2ccnc3cc(OC)c(OC)cc23)cc1F (centres unmarked) [Compound 211]
- pKd (TYRO3): 6.00 to 7.00
- pIC50 [1]: > 7.00

SMILES: CCOc1cn(-c2cscn2)nc1C(=O)Nc1ccc(Oc2ccnc3cc(OC)c(OC)cc23)cn1 [Compound 13]
- pKd (TYRO3): > 7.00
- pIC50 [1]: > 7.00

SMILES: CCOc1cn(-c2ccc(OC(F)(F)F)cc2C)nc1C(=O)Nc1ccc(Oc2ccnc3cc(OC)c(OC)cc23)cn1 [Compound 113]
- pKd (TYRO3): 6.00 to 7.00
- pIC50 [1]: > 7.00

SMILES: CCOc1cn(-c2cnccc2C(F)(F)F)nc1C(=O)Nc1ccc(Oc2ccnc3cc(OC)c(OC)cc23)cn1 [Compound 170]
- pKd (TYRO3): > 7.00
- pIC50 [1]: > 7.00

SMILES: CCOc1cn(-c2ccc(OC(F)(F)F)cc2Cl)nc1C(=O)Nc1ccc(Oc2ccnc3cc(OC)c(OC)cc23)c(F)c1 [Compound 189]
- pKd (TYRO3): > 7.00
- pIC50 [1]: > 7.00

SMILES: CCOc1cn(-c2cnc(C)cn2)nc1C(=O)Nc1ccc(Oc2ccnc3cc(OC)c(OC)cc23)cn1 [Compound 160]
- pKd (TYRO3): ≤ 6.00
- pIC50 [1]: > 7.00

SMILES: CCOc1cn(-c2cccnc2)nc1C(=O)Nc1ccc(Oc2ccnc3cc(OC)c(OC(F)(F)F)cc23)cn1 [Compound 199]
- pKd (TYRO3): ≤ 6.00
- pIC50 [1]: > 7.00

SMILES: CCOc1cn(-c2c(C)ccnc2C)nc1C(=O)Nc1ccc(Oc2ccnc3cc(OC)c(OC)cc23)c(F)c1 [Compound 188]
- pKd (TYRO3): > 7.00
- pIC50 [1]: > 7.00

SMILES: CCOc1cn(-c2ccc(F)c(CN(C)C)c2)nc1C(=O)Nc1ccc(Oc2ccnc3cc(OC)c(OC)cc23)cn1 [Compound 124]
- pKd (TYRO3): > 7.00
- pIC50 [1]: > 7.00

SMILES: CCOc1cn(-c2cnccc2C(C)=O)nc1C(=O)Nc1ccc(Oc2ccnc3cc(OC)c(OC)cc23)cn1 [Compound 182]
- pKd (TYRO3): > 7.00
- pIC50 [1]: > 7.00

SMILES: CCOc1cn(-c2cn[nH]c2)nc1C(=O)Nc1ccc(Oc2ccnc3cc(OC)c(OC)cc23)cn1 [Compound 8]
- pKd (TYRO3): 6.00 to 7.00
- pIC50 [1]: > 7.00

SMILES: CCOc1cnn(-c2ccc(Cl)c(CN(C)C)c2)c1C(=O)Nc1ccc(Oc2ccnc3cc(OC)c(OC)cc23)cn1 [Compound 130]
- pKd (TYRO3): 6.00 to 7.00
- pIC50 [1]: > 7.00

SMILES: CCOc1cnn(-c2ccc(C(F)(F)F)cc2C(F)(F)F)c1C(=O)Nc1ccc(Oc2ccnc3cc(OC)c(OC)cc23)cn1 [Compound 110]
- pKd (TYRO3): 6.00 to 7.00
- pIC50 [1]: > 7.00

SMILES: COc1cc2nccc(Oc3ccc(NC(=O)c4nn(-c5cccnc5)cc4OCC(F)(F)F)nc3)c2cc1OC [Compound 185]
- pKd (TYRO3): > 7.00
- pIC50 [1]: > 7.00

SMILES: CCOc1cn(-c2cncn2C)nc1C(=O)Nc1ccc(Oc2ccnc3cc(OC)c(OC)cc23)cn1 [Compound 11]
- pKd (TYRO3): 6.00 to 7.00
- pIC50 [1]: > 7.00

SMILES: CCOc1cn(-c2cnc(N)nc2)nc1C(=O)Nc1ccc(Oc2ccnc3cc(OC)c(OC)cc23)c(F)c1 [Compound 141]
- pKd (TYRO3): > 7.00
- pIC50 [1]: > 7.00

SMILES: CCOc1cn(-c2ccc(F)cc2C(C)C)nc1C(=O)Nc1ccc(Oc2ccnc3cc(OC)c(OC)cc23)cn1 [Compound 125]
- pKd (TYRO3): > 7.00
- pIC50 [1]: > 7.00
